From article PMC5666424, “Marine-Derived 2-Aminoimidazolone Alkaloids. Leucettamine B-Related Polyandrocarpamines Inhibit Mammalian and Protozoan DYRK & CLK Kinases” (Marine Drugs, 2017)
Like-named read-outs stand apart in the source and are kept apart here.

Experiments:
Experiment in all cases: Protein kinase assay
[1] = target: CLK1 (Mus musculus, UniProt P22518); details: IC50 CLK1, 15 μmol/L ATP
[2] = target: CLK2 (Mus musculus, UniProt O35491); details: IC50 CLK2, 15 μmol/L ATP
[3] = target: CK1δ/ε; assay type: biochemical, porcine; details: 15 μmol/L ATP
Description: (§1) CK1δ/ε (porcine brain, native) and LmCK1 (leishmania major, recombinant, expressed in E. coli as HIS fusion proteins) was assayed as described for CDK1 but in buffer C and using 25 μM CKS peptide ([…]pSAYSITA), a CK1-specific substrate.

[4] = target: CDK9/cyclin T (Homo sapiens, UniProt P50750); details: IC50 CDK9/cyclin T, 15 μmol/L ATP
[5] = target: T1, DYRK2 (Homo sapiens, UniProt Q92630); assay type: biochemical
T1 sequence (Q92630 1-601): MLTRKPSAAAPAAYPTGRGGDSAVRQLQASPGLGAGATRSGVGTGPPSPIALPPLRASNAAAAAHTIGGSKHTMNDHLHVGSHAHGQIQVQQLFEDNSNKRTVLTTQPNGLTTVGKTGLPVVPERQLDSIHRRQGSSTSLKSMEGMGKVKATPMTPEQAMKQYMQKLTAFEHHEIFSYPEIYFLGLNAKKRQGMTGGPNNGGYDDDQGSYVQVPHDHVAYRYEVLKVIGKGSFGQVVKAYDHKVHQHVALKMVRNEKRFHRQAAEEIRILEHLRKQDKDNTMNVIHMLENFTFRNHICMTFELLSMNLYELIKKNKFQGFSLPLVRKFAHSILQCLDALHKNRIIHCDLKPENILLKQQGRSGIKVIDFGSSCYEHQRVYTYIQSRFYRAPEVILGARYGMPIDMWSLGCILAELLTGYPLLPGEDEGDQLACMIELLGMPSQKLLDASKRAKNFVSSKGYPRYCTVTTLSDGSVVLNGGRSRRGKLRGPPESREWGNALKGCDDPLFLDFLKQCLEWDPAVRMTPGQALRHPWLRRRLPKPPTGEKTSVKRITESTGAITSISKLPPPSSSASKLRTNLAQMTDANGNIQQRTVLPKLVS

[6] = target: CDK1/cyclin B; assay type: biochemical, starfish; details: 15 μmol/L ATP
[7] = target: TbCLK1 (Trypanosoma brucei brucei, UniProt Q382U0); assay type: biochemical
Description: (§2) The parasitic kinase genes (Supplementary Data, Table S3) were optimized for expression in E. coli, synthesized, and cloned in pGEX-6P-1 (GE Healthcare, Sigma-Aldrich, St. Quentin Fallavier, France) with the type II restriction enzymes BamHI and XhoI for glutathione S-transferase (GST) fusion at the N-terminus (GenScript). Plasmids were transformed into chemically competent E. coli BL21(DE3), which were grown overnight at 37 °C in 2 × YT medium containing 100 μg/mL ampicillin. These cultures were used to inoculate 1 L volumes of 2 × YT medium (containing 100 μg/mL ampicillin) in 5 L flasks. The cultures were allowed to grow at 37 °C before the temperature was decreased to 18 °C. At an optical density at 600 nm (OD600) of about 1.0, protein expression was induced overnight at 18 °C with 0.1 mM isopropyl β-D-1-thiogalactopyranoside (IPTG). The bacteria were harvested by centrifugation and were frozen at −20 °C.
(§3) Cells were resuspended in a lysis buffer (PBS pH 7.4, 1% NP40, 1 mM DTT, 1 mM EDTA, 1 mM PMSF) in the presence of protease inhibitor cocktail (Roche), and lysozyme was added to 1 mg/mL and incubated 1 h at 4 °C with gentle agitation. Cells were then sonicated on ice before 6 mM MgCl2 and 25 U/mL benzonase (Novagen, Merck Millipore, Fontenay sous Bois, France) were added to degrade nucleic acids and decrease sample viscosity. After centrifugation at 4 °C, the soluble fraction was collected and proteins were bound to Glutathione sepharose 4B beads (GE Healthcare). Beads were washed three times with lysis buffer and once with modified buffer C (25 mM MOPS pH 7.0, 60 mM β-glycerophosphate, 15 mM p-nitrophenylphosphate, 15 mM EGTA, 15 mM MgCl2, 2 mM DTT, 1 mM sodium vanadate). Proteins were eluted with elution buffer (buffer C containing 30 mM reduced glutathione, 15% glycerol, and pH adjusted to 8.5).

[8] = target: LdDYRK4 (Leishmania donovani, UniProt A0A3Q8IC55); assay type: biochemical
Description: as §2, §3

[9] = target: LmCK1 (Leishmania major, UniProt Q9NHE1); assay type: biochemical
Description: as §1

[10] = target: T2, CDK2/cyclin A (Homo sapiens, UniProt P24941); assay type: biochemical
T2 construct: made in house

[11] = target: T3, DYRK3 (Homo sapiens, UniProt O43781); assay type: biochemical
T3 sequence (O43781 1-588): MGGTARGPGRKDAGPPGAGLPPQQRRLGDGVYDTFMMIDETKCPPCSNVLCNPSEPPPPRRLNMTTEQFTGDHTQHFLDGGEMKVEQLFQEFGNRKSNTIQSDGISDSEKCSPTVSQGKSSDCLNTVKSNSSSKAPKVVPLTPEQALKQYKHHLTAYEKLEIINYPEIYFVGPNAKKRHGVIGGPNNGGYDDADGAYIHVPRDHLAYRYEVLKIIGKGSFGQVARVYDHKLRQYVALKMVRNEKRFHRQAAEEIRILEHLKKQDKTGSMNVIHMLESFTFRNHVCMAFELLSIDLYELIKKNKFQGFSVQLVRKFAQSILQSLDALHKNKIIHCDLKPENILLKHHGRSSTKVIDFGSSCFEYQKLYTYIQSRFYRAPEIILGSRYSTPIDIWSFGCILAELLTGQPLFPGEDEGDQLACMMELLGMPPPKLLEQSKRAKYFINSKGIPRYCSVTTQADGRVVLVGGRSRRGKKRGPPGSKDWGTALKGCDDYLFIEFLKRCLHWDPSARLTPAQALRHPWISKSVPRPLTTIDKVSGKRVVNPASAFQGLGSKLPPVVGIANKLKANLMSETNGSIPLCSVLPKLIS

[12] = target: DYRK1B (Homo sapiens, UniProt Q9Y463); assay type: biochemical; details: 15 μmol/L ATP
[13] = target: T4, CDK5/p25 (Homo sapiens, UniProt Q00535); assay type: biochemical
T4 construct: made in house

[14] = target: DYRK1A (Homo sapiens, UniProt Q13627); assay type: biochemical; details: 15 μmol/L ATP
[15] = 15 μmol/L ATP, read-out: IC50 DYRK2
[16] = 15 μmol/L ATP, read-out: IC50 TbCLK1
[17] = 15 μmol/L ATP, read-out: IC50 LdDYRK4
[18] = 15 μmol/L ATP, read-out: IC50 LmCK1
[19] = 15 μmol/L ATP, read-out: IC50 CDK2/cyclin A
[20] = 15 μmol/L ATP, read-out: IC50 DYRK3
[21] = 15 μmol/L ATP, read-out: IC50 CDK5/p25

Sequence of CLK1 (P22518 whole entry): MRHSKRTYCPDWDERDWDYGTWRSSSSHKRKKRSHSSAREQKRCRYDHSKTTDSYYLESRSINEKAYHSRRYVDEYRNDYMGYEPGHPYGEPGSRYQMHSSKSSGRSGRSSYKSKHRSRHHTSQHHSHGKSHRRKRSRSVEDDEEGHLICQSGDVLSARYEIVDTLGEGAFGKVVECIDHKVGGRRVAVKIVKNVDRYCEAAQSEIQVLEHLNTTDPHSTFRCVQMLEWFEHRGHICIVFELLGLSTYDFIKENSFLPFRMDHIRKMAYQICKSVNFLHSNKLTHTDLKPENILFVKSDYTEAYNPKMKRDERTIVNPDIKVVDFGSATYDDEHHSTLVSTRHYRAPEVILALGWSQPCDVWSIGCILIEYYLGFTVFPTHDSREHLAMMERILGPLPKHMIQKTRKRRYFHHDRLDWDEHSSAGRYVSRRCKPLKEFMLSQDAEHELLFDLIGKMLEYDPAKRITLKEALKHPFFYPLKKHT
Sequence of LmCK1 (Q9NHE1 entry or part of it): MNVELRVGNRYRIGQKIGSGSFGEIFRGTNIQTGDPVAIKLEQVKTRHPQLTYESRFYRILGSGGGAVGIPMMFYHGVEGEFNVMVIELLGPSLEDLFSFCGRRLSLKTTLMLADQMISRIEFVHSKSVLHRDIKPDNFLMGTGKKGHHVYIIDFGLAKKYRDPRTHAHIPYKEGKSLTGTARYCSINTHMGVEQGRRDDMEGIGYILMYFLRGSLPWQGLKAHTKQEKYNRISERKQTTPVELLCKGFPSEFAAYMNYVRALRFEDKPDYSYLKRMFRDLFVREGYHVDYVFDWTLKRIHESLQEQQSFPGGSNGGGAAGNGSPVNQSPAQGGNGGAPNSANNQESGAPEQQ
Sequence of LdDYRK4 (A0A3Q8IC55 entry or part of it): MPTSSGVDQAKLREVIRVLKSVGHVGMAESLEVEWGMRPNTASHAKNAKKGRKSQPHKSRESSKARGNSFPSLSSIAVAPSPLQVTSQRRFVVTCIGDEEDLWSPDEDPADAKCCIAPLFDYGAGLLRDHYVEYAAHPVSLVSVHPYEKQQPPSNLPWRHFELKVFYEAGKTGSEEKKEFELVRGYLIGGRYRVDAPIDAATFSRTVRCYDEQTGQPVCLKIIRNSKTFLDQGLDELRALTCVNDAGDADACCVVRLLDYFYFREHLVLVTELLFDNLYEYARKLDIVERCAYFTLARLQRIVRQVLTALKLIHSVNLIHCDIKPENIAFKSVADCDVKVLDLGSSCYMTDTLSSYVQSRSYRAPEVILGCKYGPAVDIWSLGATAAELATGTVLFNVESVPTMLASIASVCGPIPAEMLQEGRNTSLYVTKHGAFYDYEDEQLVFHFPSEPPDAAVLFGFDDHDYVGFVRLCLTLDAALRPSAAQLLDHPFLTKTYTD
Sequence of CLK2 (O35491 whole entry): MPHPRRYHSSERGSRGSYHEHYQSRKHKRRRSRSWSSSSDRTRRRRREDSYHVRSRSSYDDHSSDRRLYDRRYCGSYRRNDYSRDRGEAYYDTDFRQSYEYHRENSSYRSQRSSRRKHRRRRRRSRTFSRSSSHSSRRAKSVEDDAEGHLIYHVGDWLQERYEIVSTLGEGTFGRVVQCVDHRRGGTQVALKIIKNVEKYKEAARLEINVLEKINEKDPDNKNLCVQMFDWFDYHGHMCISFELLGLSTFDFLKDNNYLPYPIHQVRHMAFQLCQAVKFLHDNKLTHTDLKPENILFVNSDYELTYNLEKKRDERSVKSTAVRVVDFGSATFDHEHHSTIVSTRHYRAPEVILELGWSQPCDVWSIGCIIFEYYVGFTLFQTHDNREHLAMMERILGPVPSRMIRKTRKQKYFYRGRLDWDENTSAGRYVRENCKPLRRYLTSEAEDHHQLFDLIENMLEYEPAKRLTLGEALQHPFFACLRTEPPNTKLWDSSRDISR
Sequence of DYRK1B (Q9Y463 whole entry): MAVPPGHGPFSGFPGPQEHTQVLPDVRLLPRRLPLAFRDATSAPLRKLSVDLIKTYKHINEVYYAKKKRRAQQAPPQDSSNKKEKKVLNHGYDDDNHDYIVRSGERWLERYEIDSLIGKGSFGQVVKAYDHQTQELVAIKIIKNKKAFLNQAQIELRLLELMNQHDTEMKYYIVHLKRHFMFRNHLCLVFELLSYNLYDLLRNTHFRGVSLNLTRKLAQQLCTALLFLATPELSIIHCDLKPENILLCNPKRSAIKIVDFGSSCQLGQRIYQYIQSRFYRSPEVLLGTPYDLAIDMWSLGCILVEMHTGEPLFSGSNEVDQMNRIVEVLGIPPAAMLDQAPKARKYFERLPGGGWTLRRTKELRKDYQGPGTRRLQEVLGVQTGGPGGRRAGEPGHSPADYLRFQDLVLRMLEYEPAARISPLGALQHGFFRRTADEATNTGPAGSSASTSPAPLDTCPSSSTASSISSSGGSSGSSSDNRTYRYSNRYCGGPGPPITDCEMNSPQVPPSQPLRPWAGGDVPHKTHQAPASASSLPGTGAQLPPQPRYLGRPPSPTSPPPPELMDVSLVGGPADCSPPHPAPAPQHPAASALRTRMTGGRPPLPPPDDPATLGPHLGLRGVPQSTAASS
Sequence of TbCLK1 (Q382U0 entry or part of it): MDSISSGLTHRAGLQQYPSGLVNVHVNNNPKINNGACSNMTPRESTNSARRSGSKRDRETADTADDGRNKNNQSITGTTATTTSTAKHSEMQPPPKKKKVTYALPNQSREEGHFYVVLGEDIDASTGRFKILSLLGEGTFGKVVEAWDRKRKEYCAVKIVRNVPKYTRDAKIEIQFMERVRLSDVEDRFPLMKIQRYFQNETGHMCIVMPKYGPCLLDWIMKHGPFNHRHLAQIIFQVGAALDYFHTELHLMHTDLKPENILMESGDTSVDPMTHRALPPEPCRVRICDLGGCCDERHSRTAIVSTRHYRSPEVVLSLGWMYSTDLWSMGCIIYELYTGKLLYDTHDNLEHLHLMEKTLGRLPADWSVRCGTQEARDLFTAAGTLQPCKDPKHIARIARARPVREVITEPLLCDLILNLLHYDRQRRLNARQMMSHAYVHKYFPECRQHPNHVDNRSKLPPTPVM
Sequence of CDK9/cyclin T (P50750 whole entry): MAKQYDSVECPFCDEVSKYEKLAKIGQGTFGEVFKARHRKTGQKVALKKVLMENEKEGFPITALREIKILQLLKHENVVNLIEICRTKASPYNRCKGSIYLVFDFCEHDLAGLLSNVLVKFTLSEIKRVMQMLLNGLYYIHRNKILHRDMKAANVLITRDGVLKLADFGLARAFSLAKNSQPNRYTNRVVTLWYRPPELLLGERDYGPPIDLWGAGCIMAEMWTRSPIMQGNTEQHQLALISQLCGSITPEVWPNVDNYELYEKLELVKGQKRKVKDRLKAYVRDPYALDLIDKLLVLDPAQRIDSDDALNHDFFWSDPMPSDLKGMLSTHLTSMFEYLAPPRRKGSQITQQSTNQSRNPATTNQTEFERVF
Sequence of CDK9/cyclin T (O60563 whole entry partner): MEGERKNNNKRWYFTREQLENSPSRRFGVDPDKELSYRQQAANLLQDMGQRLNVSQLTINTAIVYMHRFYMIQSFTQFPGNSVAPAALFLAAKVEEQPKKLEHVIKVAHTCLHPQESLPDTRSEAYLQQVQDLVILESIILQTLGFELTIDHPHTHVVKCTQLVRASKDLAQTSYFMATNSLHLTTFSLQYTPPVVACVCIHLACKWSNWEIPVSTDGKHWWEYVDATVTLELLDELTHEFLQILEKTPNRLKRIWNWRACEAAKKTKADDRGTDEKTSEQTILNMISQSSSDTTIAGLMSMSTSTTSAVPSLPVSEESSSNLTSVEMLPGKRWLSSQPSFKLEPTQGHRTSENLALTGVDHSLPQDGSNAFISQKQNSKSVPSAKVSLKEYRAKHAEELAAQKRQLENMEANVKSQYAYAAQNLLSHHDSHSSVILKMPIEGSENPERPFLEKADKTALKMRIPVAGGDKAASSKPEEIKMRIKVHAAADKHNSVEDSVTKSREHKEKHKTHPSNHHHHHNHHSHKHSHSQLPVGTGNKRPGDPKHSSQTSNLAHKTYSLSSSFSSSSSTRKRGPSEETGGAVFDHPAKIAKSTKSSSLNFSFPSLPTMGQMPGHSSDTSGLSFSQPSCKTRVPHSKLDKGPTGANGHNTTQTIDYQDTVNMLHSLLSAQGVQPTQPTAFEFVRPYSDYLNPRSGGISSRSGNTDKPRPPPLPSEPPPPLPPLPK
T4 sequence (Q00535 whole entry): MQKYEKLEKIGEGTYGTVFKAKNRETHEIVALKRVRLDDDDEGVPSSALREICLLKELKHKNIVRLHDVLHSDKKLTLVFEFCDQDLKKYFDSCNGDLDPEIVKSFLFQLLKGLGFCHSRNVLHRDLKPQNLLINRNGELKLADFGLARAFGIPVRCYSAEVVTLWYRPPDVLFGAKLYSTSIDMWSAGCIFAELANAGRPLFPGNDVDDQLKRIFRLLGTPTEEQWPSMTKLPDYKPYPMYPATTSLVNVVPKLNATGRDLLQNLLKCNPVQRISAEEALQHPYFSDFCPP
T4 sequence (Q15078 99-307 partner limits assumed): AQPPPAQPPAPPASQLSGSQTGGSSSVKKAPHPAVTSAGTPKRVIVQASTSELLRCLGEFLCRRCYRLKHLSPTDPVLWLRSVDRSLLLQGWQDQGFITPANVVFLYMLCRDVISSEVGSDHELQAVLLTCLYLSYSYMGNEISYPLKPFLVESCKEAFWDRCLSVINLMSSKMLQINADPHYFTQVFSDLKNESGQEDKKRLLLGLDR

Compound | IC50 [1] [µM] | IC50 [2] [µM] | IC50 [3] [µM] | IC50 [4] [µM] | IC50 [6] [µM] | IC50 [12] [µM] | IC50 [5, 15] [µM] | IC50 [7, 16] [µM] | IC50 [8, 17] [µM] | IC50 [9, 18] [µM] | IC50 [14] [µM] | IC50 [10, 19] [µM] | IC50 [11, 20] [µM] | IC50 [13, 21] [µM] | also measured
CN1C(=O)/C(=C/c2ccc3c(c2)OCO3)N=C1N [Leucettamine B] | 0.1 | 0.91 | > 10 | > 10 | > 10 | – | – | – | – | – | – | – | – | – | IC50 ([5]; IC50 DYRK2, 15 μmol/L ATP): 0.49 µM; IC50 [7]: > 10 µM; IC50 [8]: > 10 µM; IC50 [9]: > 10 µM; IC50 [10]: > 10 µM; IC50 ([11]; IC50 DYRK3, 15 μmol/L ATP): 0.6 µM
NC1=NC(=O)/C(=C2\CCNC(=O)c3[nH]c(Br)cc32)N1 [Hymenialdisine, reference compound] | 0.003 | 0.0041 | 0.0037 | 0.011 | 0.005 | 0.0032 | 0.0031 | 0.53 | > 10 | 0.0025 | 0.0033 | 0.011 | 0.0049 | – | IC50 [13]: 0.0061 µM
CN1C(=N)N(C)/C(=C\c2c[nH]c3ccccc23)C1=O [Aplysinopsine] | > 10 | > 10 | > 10 | > 10 | > 10 | > 10 | > 10 | > 10 | > 10 | > 10 | > 10 | > 10 | > 10 | > 10 | –
NC1=NC(=O)/C(=C2\CCNC(=O)c3[nH]cc(Br)c32)N1 [Spongiacidin B] | 0.022 | 0.0073 | 0.031 | 0.2 | 0.031 | 0.0058 | 0.021 | 0.71 | > 10 | 0.025 | 0.78 | 0.068 | 0.044 | 0.042 | –
CN1C(=O)N=C(Nc2nc(Cc3ccc4c(c3)OCO4)cn2C)C1=O [Clathridine] | 6.9 | 6 | > 10 | > 10 | > 10 | > 10 | 7.1 | > 10 | > 10 | > 10 | 7.8 | > 10 | > 10 | > 10 | –
COc1cc(/C=C2\N=C(N)NC2=O)ccc1O [Polyandrocarpamine A] | 1 | 1.2 | 3.3 | 0.93 | – | 0.43 | 0.42 | > 10 | > 10 | > 10 | 0.27 | > 10 | 0.17 | > 10 | –
CN1C(=N)N=C(Nc2nc(Cc3ccc4c(c3)OCO4)cn2C)C1=O [Clathridimine] | 7.2 | 6.1 | > 10 | > 10 | > 10 | 5.6 | 6.2 | > 10 | > 10 | > 10 | 5.2 | > 10 | 6.1 | > 10 | –
NC1=N/C(=C\CCNC(=O)c2cc(Br)c(Br)[nH]2)C(=O)N1 [Dispacamide] | > 10 | > 10 | > 10 | > 10 | > 10 | > 10 | > 10 | > 10 | > 10 | > 10 | > 10 | > 10 | > 10 | > 10 | –
NC1=N/C(=C\c2ccc(O)c(O)c2)C(=O)N1 [Polyandrocarpamine B] | – | 4.9 | > 10 | 5.2 | > 10 | 1.2 | 0.76 | > 10 | > 10 | > 10 | 0.47 | > 10 | 0.88 | > 10 | –
